Test results reported in publication PMC12837263, “β,β-Dimethylacrylalkannin Restores Colistin Efficacy Against mcr- and TCS-Mediated Resistant Gram-Negative Bacteria via Membrane Disturbance” (Antibiotics, 2025).
pIC50, pKd: −log10 of the molar value.

What was measured:
sheep blood cells = assay: Hemolytic activity; assay type: cell-based; conditions: Ovis aries, Erythrocyte; sheep erythrocytes, 1 h; selection criterion; read-out: IC50 hemolysis
Method: Toxicity assessment was performed by using sheep blood cells, human renal proximal tubular epithelial HK-2, and human hepatocarcinoma HepG2. Briefly, 8% erythrocyte suspensions were incubated with the test compounds (0–250 µM) for 1 h at 37 °C. After centrifugation, supernatants were transferred to a 96-well plate, and absorbance was measured at 570 nm.
The HepG2 and HK-2 cells (10^4 cells/well) were cultured in DMEM medium containing 10% fetal bovine serum (FBS) and then placed in a 5% CO2 incubator for 24 h. The culture medium was replaced with fresh DMEM medium containing the compounds (0–250 µM), followed by a further 24 h incubation. Subsequently, 10 µL of CCK-8 was added and incubated for 1 h, and OD450nm values were measured.Hemolysis% = [OD570nm(drug) − OD570nm(blank)]/[OD570nm(TritonX−100) − OD570nm(blank)] × 100%Cell viability% = [OD450nm(drug) − OD450nm(blank)]/[OD450nm(negative) − OD450nm(blank)] × 100%

E. coli spheroplasts = assay: Membrane permeability of spheroplasts (PI); assay type: cell-based
Method: The cytoplasmic membrane LPS concentrations of E. coli BW25113, E. coli BW25113-mcr-1, and E. coli BW25113-pmrBR93P were quantified using a Chromogenic LAL Endotoxin Assay Kit (Cat No, C0273S, Beyotime, Shanghai, China). Firstly, spheroplasts were prepared according to a previously described method to remove the outer membrane. Briefly, bacterial cells were washed with Tris buffer and resuspended in Tris buffer containing 20% sucrose. EDTA (250 μL, 10 mg/mL) and lysozyme (1 mL, 10 mg/mL) were added, followed by incubation at 30 °C for 1 h with shaking at 80 rpm. Trypsin (500 μL, 10 mg/mL) was added and incubated for an additional 15 min. […] Then, the released LPS was quantified by reacting with LPS detection reagents, and absorbance was measured at 405 nm.
The S. aureus ATCC 29213 bacterial suspension (OD600 = 0.5) was incubated with fluorescent probe propidium iodide (PI, Cat No. C1008S, Beyotime, Shanghai, China, final concentration 10 µM) for 30 min. […] Fluorescence intensity was measured at an excitation/emission wavelength of 535/615 nm. The cytoplasmic membrane permeability of E. coli BW25113, E. coli BW25113-mcr-1, and E. coli BW25113-pmrBR93P induced by β,β-Dim was assessed by preparing spheroplasts.

S. aureus ATCC 29213 [1] = assay: Membrane potential, proton gradient and PMF; assay type: cell-based
S. aureus ATCC 29213 [2] = assay: Effect of membrane components on antibacterial activity; assay type: cell-based
Method: The effects of membrane components on the antibacterial activity of β,β-Dim were evaluated using the checkerboard method by exogenous addition of phosphatidylethanolamine (PE), phosphatidylglycerol (PG), and cardiolipin (CL). The same procedure was followed with pre-addition of the respective components to CAMHB to explore their impact on the β,β-Dim–colistin combination in E. coli.

[3] = Isothermal titration calorimetry (ITC); assay type: binding; conditions: 25 °C, β,β-Dim vs CL
Method: An isothermal titration calorimetry (ITC) assay was used to assess the affinity between β,β-Dim and PE, PG, and CL using NANO ITC (TA, New Castle, DE, USA). β,β-Dim (0.01 mM) was loaded into the sample cell and titrated with 20 injections of 2 μL membrane components (0.2 mM) at 120 s intervals. The assay was performed at 25 °C with a stirring rate of 350 rpm. Data were analyzed using the independent binding model to calculate the dissociation constant (KD), stoichiometric ratio (n), enthalpy change (ΔH), and entropy change (ΔS).

[4] = acute oral, mice; cited from earlier work
[5] = rats; cited from earlier work
[6] = cited from earlier work
[7] = system: K. pneumoniae (including mcr-1, mcr-8, mcr-9, pmrA/B, phoP, and mgrB); assay: Checkerboard assay, colistin-resistant K. pneumoniae (summary); assay type: cell-based; conditions: with β,β-Dim
Method: The FICI of β,β-Dim–colistin combination was determined by a checkerboard assay. Briefly, two-fold serial dilutions of β,β-Dim and colistin were prepared in a 96-well plate. After incubation at 37 °C for 18 h with bacterial suspension (10^6 CFU/mL), OD600 values were measured. FICI = (MICβ,β-Dim in combination/MICβ,β-Dim) + (MICcolistin in combination/MICcolistin). The synergistic effect of β,β-Dim with other antibiotics was measured in the same way. Synergy was considered to be an FICI ≤ 0.5.

[8] = system: E. coli BW25113, E. coli BW25113-mcr-1, E. coli BW25113-pmrBR93P; assay: Intracellular colistin content (HPLC-MS/MS); assay type: cell-based; conditions: colistin 0.5 × MIC with β,β-Dim at the highest tested concentration; 30 min
Method: Overnight cultures E. coli BW25113, E. coli BW25113-mcr-1, and E. coli 1 BW25113-pmrBR93P were diluted to 10^8 CFU/mL and then co-incubated with colistin (0.5 × MIC) in the presence of β,β-Dim (0–4 μg/mL) for 30 min at 37 °C. The cultures were centrifuged and resuspended in 30% methanol. Bacteria were disrupted by sonication and centrifugation, supernatants were diluted in 20% acetonitrile, and intracellular colistin was quantified via HPLC-MS/MS (TQ-XS, Waters, Milford, MA, USA). Analyses were performed on a CORTECS Shield RP C18 column (Waters, Milford, MA, USA) at 40 °C, with a flow rate of 0.4 mL/min and an injection volume of 5 μL. The mobile phases consisted of solvent A (0.5% formic acid and acetonitrile in water) and solvent B (0.5% formic acid in water). Colistin was detected in positive ESI mode with ion transitions […] and m/z 386.0 > 101.0. […] Mobile phases included solvent A (acetonitrile) and solvent B (water). β,β-Dim was detected in the negative electrospray ionization (ESI) mode with ion transitions m/z 369.1 > 269.0 and m/z 369.1 > 241.0.

Compound | pIC50 (sheep blood cells) | membrane permeability (E. coli spheroplasts) | membrane potential, proton gradient, PMF (S. aureus ATCC 29213 [1]) | antibacterial activity with exogenous PE, PG, and CL (S. aureus ATCC 29213 [2]) | increase of MIC by CL (S. aureus ATCC 29213 [2]; CL 40 μM) [fold] | pKd [3] | median lethal dose (LD50) [4] | maximum tolerable dose [5] | no-observed-adverse-effect level (NOAEL) [5] [mg/kg] | lipophilicity [6] | enhancement of colistin activity (MIC reduction) [7] | intracellular colistin levels [8]
CC(C)=CC[C@H](OC(=O)C=C(C)C)C1=CC(=O)c2c(O)ccc(O)c2C1=O [β,β-Dim, β,β-dimethylacrylalkannin] | < 5.00 | markedly increased membrane permeability | increased membrane potential in S. aureus ATCC 29213, reduced the proton gradient, and dissipated the PMF | attenuated the antibacterial activity | 4 | 4.91 | exceeds 10 g/kg | exceeds 10 g/kg | 10 | high lipophilicity | – | –
colistin | – | – | – | – | – | – | – | – | – | – | 8–1024 fold | exceeding 0.6 µg per 10^8 CFUs
